From paper PMC8302504, “Efficacy of Fenfluramine and Norfenfluramine Enantiomers and Various Antiepileptic Drugs in a Zebrafish Model of Dravet Syndrome” (Neurochemical Research, 2021)
“Also recorded” adds a separate entry of the source.

Tests used:
[1] = system: zebrafish scn1Lab−/− mutant larvae; experiment: Locomotor activity measurement (behavioral assay) in the zebrafish DS model; assay type: in vivo, Danio rerio; details: 22 h; for effect on epileptiform (hyper-)locomotor activity: single treatment at MTC, Fig. 2A
Method: (§1) WT and homozygous zebrafish larvae (scn1Lab^−/− mutants) (6 dpf) were individually positioned in single wells of a 96-well plate, and incubated in 100 μL VHC or VHC supplemented with compound or combined compounds for 22 h at 28 °C on a 14/10 h light/dark cycle. Then, the plates were placed immediately in an enclosed tracking device (ZebraBox Viewpoint, France), followed by a 30 min chamber habituation and 10 min recording. Locomotor activity over the total tracking period of 10 min was quantified by ZebraLab software (Software Viewpoint, France) using the lardist parameter (total distance in large movements) and 150 bkg (background) as a threshold, as reported previously by our group. For “small/large movement” and “inact/small movement”, a threshold was used of 6.4 and 3.3, respectively. Data were pooled from three or four independent experiments, with at least five larvae for each treatment and 20–30 larvae for each experimental condition, and expressed as “cm” per 100 s.

WT zebrafish larvae = experiment: Toxicity evaluation: maximum tolerated concentration (MTC); assay type: in vivo, Danio rerio; details: WT larvae 6 dpf, 22 h incubation
Method: To evaluate the maximum tolerated concentration (MTC) of the individual compounds, a dozen of WT zebrafish larvae (6 dpf) were individually incubated in single wells of a 96-well plate, and treated with two-fold serial dilutions of the compounds. After 22 h incubation under standard conditions (28 °C, 14/10 light/dark cycle), larvae were individually examined for their touch response, posture, edema, signs of necrosis, morphology, heartbeat rate, and swim bladder condition under the microscope.

[2] = system: zebrafish scn1Lab−/− mutant larvae; experiment: Noninvasive local field potential (LFP) recordings from the optic tectum; assay type: in vivo, Danio rerio; details: 22 h; for effect on cumulative duration of epileptiform events: Fig. 2B; for effect on frequency of epileptiform events: Fig. 2C
Method: (§2) WT and homozygous zebrafish larvae (scn1Lab^−/− mutants) (6 dpf) were treated as described above. After incubation, larvae were immobilized in 2% low-melting-point agarose (Invitrogen) at room temperature (RT) and the epileptiform activities were measured by noninvasive local field potential (LFP) recording from the skin above the optic tectum (midbrain). The single glass electrode filled with artificial cerebrospinal fluid (ACSF) (124 mM NaCl, 2 mM KCl, 2 mM MgSO4, 2 mM CaCl2, 1.25 mM KH2PO4, 26 mM NaHCO3, and 10 mM glucose) was positioned on the skin above the optic tectum. Each recording lasted for 10 min. Epileptiform activity was quantified by using Clampfit 10.2 software (Molecular Devices Corporation, USA60), as reported previously by our group.

[3] = system: zebrafish scn1Lab−/− mutant model of DS; experiment: Overall antiepileptic activity in the zebrafish scn1Lab−/− mutant model (locomotor and LFP read-outs together); assay type: in vivo, Danio rerio; details: 22 h incubation
Method: as §1, §2

5-HT2C = system: 5-HT2C; set-up: method as in earlier work; details: 34 (Rothman et al.); cited from earlier work
dopamine (DA) release = system: dopamine (DA) release; set-up: method as in earlier work; details: 34 (Rothman et al.); cited from earlier work
dopamine (DA) uptake = target: dopamine (DA) uptake; set-up: method as in earlier work; details: 34 (Rothman et al.); read-out: Ki values for uptake inhibition, DA; cited from earlier work
[4] = system: 5-HT transporter proteins; set-up: method as in earlier work; details: 34 (Rothman et al.); read-out: EC50 values for release, 5-HT; cited from earlier work
5-HT2B = system: 5-HT2B; set-up: method as in earlier work; details: 34 (Rothman et al.); cited from earlier work
[5] = Compound concentration (uptake) in larval zebrafish heads by LC-MS; assay type: in vivo, Danio rerio; details: immersion at MTC for 30 min, 4 h and 22 h, Fig. 4
Method: WT and homozygous zebrafish larvae (scn1Lab^−/− mutants) (6 dpf) were treated as described above. After incubation with compounds, larvae were washed and euthanized by exposure to cold Milli-Q water. Then, the heads of larvae were carefully separated under the microscope, and five heads were transferred collectively into one 1.5 mL Eppendorf tube with acid-washed glass beads (diameter: […], Sigma Aldrich) and 275 µL extraction medium (HPLC grade methanol, Sigma Aldrich). Next, the samples were homogenized by 10 min of ultrasonication (Diagenode Bioruptor Plus, Belgium) at 4 °C. The overall ultrasonication process encompassed 10 cycles of 30 s with pauses of 30 s in-between with high energy input. […]
Quantification was performed through the use of a calibration curve created for each compound separately in blank matrix, which was derived from a pooled set of blank fish heads (n = 40). […] Ranges consisted of at least 5 concentrations, each of which was analyzed in replicate (n = 5). […]
The mean head weight (± S.D.) of a 6 dpf and 7 dpf zebrafish larva was 192 ± 10 µg and 196 ± 13 µg, respectively, as measured by weighing three batches of 50 fresh heads after removing excess water with filter paper. The final uptake was calculated according to the method reported by Copmans et al., and expressed as amount/head weight (µg/g).

5-HT2A = system: 5-HT2A; set-up: method as in earlier work; details: 34 (Rothman et al.); cited from earlier work
[6] = system: norepinephrine (NE) release; set-up: method as in earlier work; details: 34 (Rothman et al.); cited from earlier work
serotonin uptake = target: serotonin uptake; set-up: method as in earlier work; details: 34 (Rothman et al.); read-out: Ki values for uptake inhibition, 5-HT; cited from earlier work
[7] = target: norepinephrine (NE) uptake; set-up: method as in earlier work; details: 34 (Rothman et al.); read-out: Ki values for uptake inhibition, NE; cited from earlier work
[8] = system: DS zebrafish mutant model; set-up: method as in PMID 29335539; details: cited from earlier work
[9] = VPA single treatment at 250 µM, Fig. 3

CCCC(CCC)C(=O)O [VPA, Valproate]
effect on locomotor activity [1, 9]: limited and statistically non-significant effect; also recorded: not active
effect on epileptiform (hyper-)locomotor activity [1]: complete rescue
maximum tolerated concentration (MTC) (WT zebrafish larvae): 1000 µM
effect on epileptiform brain discharges [2, 9]: limited and statistically non-significant effect; also recorded: not active
effect on cumulative duration of epileptiform events ([2]; single treatment at MTC): complete rescue
effect on frequency of epileptiform events ([2]; single treatment at MTC): complete rescue

C[C@H](N)Cc1cccc(C(F)(F)F)c1 [(+)-norFFA]
antiepileptic activity in the model (overall) [3]: more consistent and concentration-dependent; also recorded: significant antiepileptic effects
Kact values for 5-HT2 receptor subtypes, 5-HT2C (5-HT2C): 13 ± 2.4 nM
EC50 (dopamine (DA) release): 0.924 ± 0.112 µM
Ki (dopamine (DA) uptake): 2.31 ± 0.087 µM
EC50 [4]: 0.0593 ± 0.0024 µM
Kact values for 5-HT2 receptor subtypes, 5-HT2B (5-HT2B): 18.4 ± 5.3 nM
total uptake in larval heads (amount of compound/head weight) [5]: somewhat similar uptake; also recorded: taken up less than the parent compound
Kact values for 5-HT2 receptor subtypes, 5-HT2A (5-HT2A): 630 ± 141 nM
EC50 [6]: 0.0727 ± 0.0054 µM
Ki (serotonin uptake): 0.214 ± 0.009 µM
Ki [7]: 0.205 ± 0.019 µM

O=C1NC(=O)C(c2ccccc2)(c2ccccc2)N1 [PHT, Phenytoin]
effect on epileptiform (hyper-)locomotor activity [1]: no inhibitory effects
maximum tolerated concentration (MTC) (WT zebrafish larvae): 100 µM
effect on epileptiform brain discharges ([2]; single treatment at MTC): no inhibitory effects

C=C(C)[C@@H]1CCC(C)=C[C@H]1c1c(O)cc(CCCCC)cc1O [CBD, cannabidiol]
effect on epileptiform (hyper-)locomotor activity [1]: failed to rescue; also recorded: not active
maximum tolerated concentration (MTC) (WT zebrafish larvae): 6.25 µM
effect on epileptiform brain discharges ([2]; single treatment at MTC): failed to rescue; also recorded: not active

C[C@@H](N)Cc1cccc(C(F)(F)F)c1 [(−)-norFFA]
antiepileptic activity in the model (overall) [3]: less conclusive
Kact values for 5-HT2 receptor subtypes, 5-HT2C (5-HT2C): 18 ± 3.5 nM
EC50 (dopamine (DA) release): > 10 µM
Ki (dopamine (DA) uptake): 19.2 µM
EC50 [4]: 0.287 ± 0.014 µM
Kact values for 5-HT2 receptor subtypes, 5-HT2B (5-HT2B): 357 ± 105 nM
total uptake in larval heads (amount of compound/head weight) [5]: somewhat similar uptake
effect on frequency and cumulative duration of the epileptiform events ([2]; at least at MTC, Fig. 7): all compounds except for (−)-norFFA significantly reduced
Kact values for 5-HT2 receptor subtypes, 5-HT2A (5-HT2A): 1565 ± 190 nM
EC50 [6]: 0.474 ± 0.04 µM
Ki (serotonin uptake): 1.18 ± 0.089 µM
Ki [7]: 2.05 ± 0.297 µM

CCN[C@H](C)Cc1cccc(C(F)(F)F)c1 [(−)-FFA]
antiepileptic activity in the model (overall) [3]: significant antiepileptic effects
Kact values for 5-HT2 receptor subtypes, 5-HT2C (5-HT2C): 360 ± 91 nM
EC50 (dopamine (DA) release): > 10 µM
Ki (dopamine (DA) uptake): > 20 µM
Kact values for 5-HT2 receptor subtypes, 5-HT2B (5-HT2B): 1248 ± 252 nM
EC50 [6]: > 10 µM
Ki [7]: 7.19 ± 0.559 µM

CC(C)(C)C(O)/C=C/c1ccc2c(c1)OCO2 (centres unmarked) [STP, stiripentol]
effect on epileptiform (hyper-)locomotor activity [1]: failed to rescue; also recorded: not active
maximum tolerated concentration (MTC) (WT zebrafish larvae): 50 µM
effect on epileptiform brain discharges ([2]; single treatment at MTC): failed to rescue; also recorded: not active

NC(=O)N1c2ccccc2C=Cc2ccccc21 [CBZ, carbamazepine]
effect on epileptiform (hyper-)locomotor activity [1]: no inhibitory effects
maximum tolerated concentration (MTC) (WT zebrafish larvae): 50 µM
effect on epileptiform brain discharges ([2]; single treatment at MTC): no inhibitory effects

CCN[C@@H](C)Cc1cccc(C(F)(F)F)c1 [(+)-FFA]
antiepileptic activity in the model (overall) [3]: more consistent and concentration-dependent; also recorded: significant antiepileptic effects
Kact values for 5-HT2 receptor subtypes, 5-HT2C (5-HT2C): 362 ± 64 nM
EC50 (dopamine (DA) release): > 10 µM
Ki (dopamine (DA) uptake): > 20 µM
Kact values for 5-HT2 receptor subtypes, 5-HT2B (5-HT2B): 379 ± 70 nM
EC50 [6]: 0.302 ± 0.02 µM
Ki [7]: 1.29 ± 0.052 µM

CC1(C)O[C@@H]2[C@@H](CO[C@@]3(COS(N)(=O)=O)OC(C)(C)O[C@@H]23)O1 [TPM, topiramate]
effect on epileptiform (hyper-)locomotor activity [1]: significantly counteracted
antiepileptic activity in the model (overall) [3]: pronounced therapeutic activity
maximum tolerated concentration (MTC) (WT zebrafish larvae): 200 µM
effect on cumulative duration of epileptiform events ([2]; single treatment at MTC): decrease
effect on frequency of epileptiform events ([2]; single treatment at MTC): dramatically attenuated

CCNC(C)Cc1cccc(C(F)(F)F)c1 (racemic) [(±)-FFA, (±)-Fenfluramine]
effect on locomotor activity ([1]; (±)-FFA single treatment at 3.13 µM, Fig. 3D): significant effect
effect on epileptiform (hyper-)locomotor activity [1]: significantly counteracted
maximum tolerated concentration (MTC) (WT zebrafish larvae): 50 µM
effect on epileptiform brain discharges ([2]; (±)-FFA single treatment at 3.13 µM, Fig. 3E, F): not on the epileptiform brain discharges
effect on cumulative duration of epileptiform events ([2]; single treatment at MTC): decrease
effect on frequency of epileptiform events ([2]; single treatment at MTC): dramatically attenuated

CN1C(=O)CC(=O)N(c2ccccc2)c2cc(Cl)ccc21 [CLB, clobazam]
effect on epileptiform (hyper-)locomotor activity [1]: failed to rescue
efficacy in the DS zebrafish mutant model [8]: ineffective
maximum tolerated concentration (MTC) (WT zebrafish larvae): 100 µM
effect on epileptiform brain discharges ([2]; single treatment at MTC): failed to rescue

Nc1nnc(-c2cccc(Cl)c2Cl)c(N)n1 [LTG, lamotrigine]
effect on epileptiform (hyper-)locomotor activity [1]: no inhibitory effects
maximum tolerated concentration (MTC) (WT zebrafish larvae): 100 µM
effect on epileptiform brain discharges ([2]; single treatment at MTC): no inhibitory effects

CC[C@@H](C(N)=O)N1CCCC1=O [LEV, levetiracetam]
effect on epileptiform (hyper-)locomotor activity [1]: failed to rescue
antiepileptic activity in the model (overall) [3]: failed to suppress
maximum tolerated concentration (MTC) (WT zebrafish larvae): 10000 µM
effect on epileptiform brain discharges ([2]; single treatment at MTC): failed to rescue
